Data: patent US20250051347A1, “BIFUNCTIONAL CHIMERIC HETEROCYCLIC COMPOUND AND USE THEREOF AS ANDROGEN RECEPTOR DEGRADER” (Hinova Pharmaceuticals, Inc., priority 2021, published 2025)

Molecular target: T1, androgen receptor (AR) splicing variant AR-v7 (Homo sapiens, UniProt P10275)
T1 construct: The degradation activity of compounds on AR-v7 in 22RV1 cells; host or cells: 22RV1 cells
T1 sequence (P10275 1-644 isoform P10275-3): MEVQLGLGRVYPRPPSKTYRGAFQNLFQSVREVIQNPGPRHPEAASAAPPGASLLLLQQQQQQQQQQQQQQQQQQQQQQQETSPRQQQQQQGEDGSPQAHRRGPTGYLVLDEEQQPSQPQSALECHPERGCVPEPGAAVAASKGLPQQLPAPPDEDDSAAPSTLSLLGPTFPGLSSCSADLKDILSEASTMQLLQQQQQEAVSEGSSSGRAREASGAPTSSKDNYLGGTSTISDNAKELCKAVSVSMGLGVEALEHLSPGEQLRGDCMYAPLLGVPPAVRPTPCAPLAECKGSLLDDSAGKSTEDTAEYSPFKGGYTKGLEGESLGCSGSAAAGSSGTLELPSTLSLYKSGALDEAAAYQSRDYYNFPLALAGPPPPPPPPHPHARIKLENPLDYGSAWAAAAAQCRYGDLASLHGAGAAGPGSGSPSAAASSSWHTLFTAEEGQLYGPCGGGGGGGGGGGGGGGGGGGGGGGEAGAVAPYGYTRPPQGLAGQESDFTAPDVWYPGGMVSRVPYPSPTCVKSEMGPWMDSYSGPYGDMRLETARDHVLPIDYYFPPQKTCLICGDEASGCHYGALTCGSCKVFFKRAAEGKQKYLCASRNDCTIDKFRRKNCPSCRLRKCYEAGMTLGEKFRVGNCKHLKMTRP
Test: Degradation activity on androgen receptor splicing variant AR-v7 in 22RV1 cells (ELISA)
Format: cell-based
Settings: AR-v7 degradation in 22RV1 cells, 48 h, class symbols

`CC(C)(c1ccc(OCCCCOCCCCNc2ccc3c(c2)C(=O)N(C2CCC(=O)NC2=O)C3=O)cc1)c1ccc(OCc2ccnc(NS(C)(=O)=O)n2)cc1` (stereo not drawn) [Example 54, N-(4-((4-(2-(4-(4-(4-((2-(2,6-dioxopiperidin-3-yl)-1,3-dioxoisoindolin-5-yl)amino)butoxy)butoxy)phenyl)isopropan-2-yl)phenoxy)methyl)pyrimidin-2-yl)methanesulfonamide] and `CCC(CC)(c1ccc(OCCCCCCCCOCCCCNc2ccc3c(c2)C(=O)N(C2CCC(=O)NC2=O)C3=O)cc1)c1ccc(OCc2ccnc(NS(C)(=O)=O)n2)cc1` (stereo not drawn) [Example 57, N-(4-((4-(3-(4-((8-(4-((2-(2,6-dioxopiperidin-3-yl)-1,3-dioxoisoindolin-5-yl)amino)butoxy)octyl)oxy)phenyl)pentan-3-yl)phenoxy)methyl)pyrimidin-2-yl)methanesulfonamide] fall in the same range of DC50: 101 to 1000 nM for the first, 101 to 1000 nM for the second.

`CS(=O)(=O)Nc1cc(COc2ccc(C3(c4ccc(OCCCCCCCCOCCCCNc5ccc6c(c5)C(=O)N(C5CCC(=O)NC5=O)C6=O)cc4)CCC3)cc2)ccn1` (stereo not drawn) [Example 58] and `CC1CN(c2nccc(COc3ccc(C(C)(C)c4ccc(OCCCCCCCCOCCCCNc5ccc6c(c5)C(=O)N(C5CCC(=O)NC5=O)C6=O)cc4)cc3)n2)C1` (stereo not drawn) [Example 63] fall in the same range of DC50: 1000 to 5000 nM for the first, 1000 to 5000 nM for the second.

First: CC(C)(c1ccc(OCCCNc2cccc3c2C(=O)N(C2CCC(=O)NC2=O)C3=O)cc1)c1ccc(OCc2ccnc(N3CCOCC3)n2)cc1 (stereo not drawn) [Example 59]
Second: CN1CCN(c2nccc(COc3ccc(C(C)(C)c4ccc(OCCCNc5cccc6c5C(=O)N(C5CCC(=O)NC5=O)C6=O)cc4)cc3)n2)CC1 (stereo not drawn) [Example 60]
The DC50 of the first is lower: 11 to 100 nM for the first, 101 to 1000 nM for the second.

First: CC(C)(c1ccc(OCCCNc2ccc3c(c2)C(=O)N(C2CCC(=O)NC2=O)C3=O)cc1)c1ccc(OCc2ccnc(S(C)(=O)=O)n2)cc1 (stereo not drawn) [Example 67, 2-(2,6-dioxopiperidin-3-yl)-5-((3-(4-(2-(4-(4-(2-(methanesulfonyl)pyrimidin-4-yl)methoxy)phenyl)propan-2-yl)phenoxy)propyl)amino)isoindolin-1,3-dione]
Second: CC(C)(c1ccc(OCc2ccnc(N3CC4(CNC4)C3)n2)cc1)c1ccc(O[C@H]2C[C@@H](Nc3ccc4c(c3)C(=O)N(C3CCC(=O)NC3=O)C4=O)C2)cc1 (stereo partly drawn) [Example 86]
The DC50 of the first is higher: 1000 to 5000 nM for the first, 11 to 100 nM for the second.

`CC(C)(c1ccc(OCc2ccnc(N3CCC4(CC3)COC4)n2)cc1)c1ccc(OC2CC(Nc3ccc4c(c3)C(=O)N(C3CCC(=O)NC3=O)C4=O)C2)cc1` (stereo not drawn) [Example 78, 5-((3-(4-(2-(4-((2-(2-oxa-7-azaspiro[3.5]nonan-7-yl)pyrimidin-4-yl)methoxy)phenyl)propan-2-yl)phenoxy)cyclobutyl)amino)-2-(2,6-dioxopiperidin-3-yl)isoindolin-1,3-dione] and `CC(C)(c1ccc(OCc2ccnc(N3CCC4(CC3)COC4)n2)cc1)c1ccc(O[C@H]2C[C@@H](Nc3ccc4c(c3)C(=O)N(C3CCC(=O)NC3=O)C4=O)C2)cc1` (stereo partly drawn) [Example 87, 5-(((1s,3s)-3-(4-(2-(4-((2-(2-oxa-7-azaspiro[3.5]nonan-7-yl)pyrimidin-4-yl)methoxy)phenyl)propan-2-yl)phenoxy)cyclobutyl)amino)-2-(2,6-dioxopiperidin-3-yl)isoindolin-1,3-dione] fall in the same range of DC50: 11 to 100 nM for the first, 11 to 100 nM for the second.

`CN1CCC2(CCN(c3nccc(COc4ccc(C(C)(C)c5ccc(OC6CC(Nc7ccc8c(c7)C(=O)N(C7CCC(=O)NC7=O)C8=O)C6)cc5)cc4)n3)C2)C1` (stereo not drawn) [Example 79, 2-(2,6-dioxopiperidin-3-yl)-5-((3-(4-(2-(4-((2-(7-methyl-2,7-diazaspiro[4.4]nonan-2-yl)pyrimidin-4-yl)methoxy)phenyl)propan-2-yl)phenoxy)cyclobutyl)amino)isoindolin-1,3-dione] and `CC(C)(c1ccc(OCc2ccnc(N3CCC4(CCNC4)C3)n2)cc1)c1ccc(O[C@H]2C[C@H](Nc3ccc4c(c3)C(=O)N(C3CCC(=O)NC3=O)C4=O)C2)cc1` (stereo partly drawn) [Example 81, 5-(((1r,3r)-3-(4-(2-(4-((2-(2,7-diazaspiro[4.4]nonan-2-yl)pyrimidin-4-yl)methoxy)phenyl)propan-2-yl)phenoxy)cyclobutyl)amino)-2-(2,6-dioxopiperidin-3-yl)isoindolin-1,3-dione] fall in the same range of DC50: 11 to 100 nM for the first, 11 to 100 nM for the second.

`CC(C)(c1ccc(OCc2ccnc(N3CC4CNCC4C3)n2)cc1)c1ccc(OC2CC(Nc3ccc4c(c3)C(=O)N(C3CCC(=O)NC3=O)C4=O)C2)cc1` (stereo not drawn) [Example 80] and `CC(C)(c1ccc(OCc2ccnc(N3CCC4(CNC4)C3)n2)cc1)c1ccc(O[C@H]2C[C@H](Nc3ccc4c(c3)C(=O)N(C3CCC(=O)NC3=O)C4=O)C2)cc1` (stereo partly drawn) [Example 83, 5-(((1r,3r)-3-(4-(2-(4-((2-(2,6-diazaspiro[3.4]octan-6-yl)pyrimidin-4-yl)methoxy)phenyl)propan-2-yl)phenoxy)cyclobutyl)amino)-2-(2,6-dioxopiperidin-3-yl)isoindolin-1,3-dione] fall in the same range of DC50: 11 to 100 nM for the first, 11 to 100 nM for the second.

`CC(C)(c1ccc(OCc2ccnc(N3CCC4(CC3)CNC4)n2)cc1)c1ccc(O[C@H]2C[C@@H](Nc3ccc4c(c3)C(=O)N(C3CCC(=O)NC3=O)C4=O)C2)cc1` (stereo partly drawn) [Example 84, 5-(((1s,3s)-3-(4-(2-(4-((2-(2,7-diazaspiro[3.5]nonan-7-yl)pyrimidin-4-yl)methoxy)phenyl)propan-2-yl)phenoxy)cyclobutyl)amino)-2-(2,6-dioxopiperidin-3-yl)isoindolin-1,3-dione] and `CC(C)(c1ccc(OCc2ccnc(N3CC4(CCNCC4)C3)n2)cc1)c1ccc(O[C@H]2C[C@@H](Nc3ccc4c(c3)C(=O)N(C3CCC(=O)NC3=O)C4=O)C2)cc1` (stereo partly drawn) [Example 85, 5-(((1s,3s)-3-(4-(2-(4-((2-(2,7-diazaspiro[3.5]nonan-2-yl)pyrimidin-4-yl)methoxy)phenyl)propan-2-yl)phenoxy)cyclobutyl)amino)-2-(2,6-dioxopiperidin-3-yl)isoindolin-1,3-dione] fall in the same range of DC50: 11 to 100 nM for the first, 11 to 100 nM for the second.

`CC(C)(c1ccc(OCc2ccnc(N3CC4(COC4)C3)n2)cc1)c1ccc(O[C@H]2C[C@@H](Nc3ccc4c(c3)C(=O)N(C3CCC(=O)NC3=O)C4)C2)cc1` (stereo partly drawn) [Example 92, 3-(6-(((1s,3s)-3-(4-(2-(4-((2-(2-oxa-6-azaspiro[3.3]heptane-6-yl)pyrimidin-4-yl)methoxy)phenyl)propan-2-yl)phenoxy)cyclobutyl)amino)-1-oxoisoindolin-2-yl)piperidin-2,6-dione] and `CN1C(=O)CCC(N2C(=O)c3ccc(N[C@H]4C[C@H](Oc5ccc(C(C)(C)c6ccc(OCc7ccnc(N8CC9(COC9)C8)n7)cc6)cc5)C4)cc3C2=O)C1=O` (stereo partly drawn) [Example 100, 5-((1r,3r)-3-(4-(2-(4-(4-((2-(2-oxa-6-azaspiro[3.3]heptane-6-yl)pyrimidin-4-yl)methoxy)phenyl)propan-2-yl)phenoxy)cyclobutyl)amino)-2-(1-methyl-2,6-dioxopiperidin-3-yl)isoindolin-1,3-dione] fall in the same range of DC50: 101 to 1000 nM for the first, 101 to 1000 nM for the second.

Compared with `CC(C)(c1ccc(Oc2ccc(-n3nccn3)nc2)cc1)c1ccc(OC2CC(Nc3ccc4c(c3)CN(C3CCC(=O)NC3=O)C4=O)C2)cc1` (stereo not drawn) [Example 93, 3-(5-((1r,3r)-3-(4-(2-(4-((6-(2H-1,2,3-triazol-2-yl)pyridin-3-yl)oxy)phenyl)propan-2-yl)phenoxy)cyclobutyl)amino)-1-oxoisoindolin-2-yl)piperidin-2,6-dione], `Cc1nc(-c2ncc(Oc3ccc(C(C)(C)c4ccc(O[C@H]5C[C@H](Nc6cc7c(cc6F)C(=O)N(C6CCC(=O)NC6=O)C7=O)C5)cc4)cc3)cn2)no1` (stereo partly drawn) [Example 102] is lower in DC50: 101 to 1000 nM for the first, 11 to 100 nM for the second.

Same assay, conditions: AR-v7 degradation in 22RV1 cells, 48 h, numeric values

First: CC(C)(c1ccc(OCc2ccnc(NS(C)(=O)=O)n2)cc1)c1ccc(OC[C@H]2CC[C@H](COCCCCCNc3ccc4c(c3)C(=O)N(C3CCC(=O)NC3=O)C4=O)CC2)cc1 (stereo partly drawn) [Example 56, N-(4-((4-(2-(4-(((1r,4r)-4-(((5-((2-(2,6-dioxopiperidin-3-yl)-1,3-dioxoisoindolin-5-yl)amino)pentyl)oxy)methyl)cyclohexyl)methoxy)phenyl)isopropan-2-yl)phenoxy)methyl)pyrimidin-2-yl)methanesulfonamide]
Second: CC(=O)c1nccc(COc2ccc(C(C)(C)c3ccc(OCC4CCN(c5ccc6c(c5)C(=O)N(C5CCC(=O)NC5=O)C6=O)CC4)cc3)cc2)n1 (stereo not drawn) [Example 108, 5-(4-((4-(2-(4-((2-acetylpyrimidin-4-yl)methoxy)phenyl)propan-2-yl)phenoxy)methyl)piperidin-1-yl)-2-(2,6-dioxopiperidin-3-yl)isoindol-1,3-dione]
The DC50 of the first is lower: 5200 nM for the first, over 10000 nM for the second.

`CC(C)(c1ccc(OCCCCCCCCOCCCCNc2ccc3c(c2)C(=O)N(C2CCC(=O)NC2=O)C3=O)cc1)c1ccc(N2CCc3cnc(N4CC5(COC5)C4)nc3C2)cc1` (stereo not drawn) [Example 65, 5-((4-((8-(4-(2-(4-(2-(2-oxa-6-azaspiro[3.3]heptan-6-yl)-5,8-dihydropyrido[3,4-d]pyrimidin-7(6H)-yl)phenyl)propan-2-yl)phenoxy)octyl)oxy)butyl)amino)-2-(2,6-dioxopiperidin-3-yl)isoindolin-1,3-dione] and `CC(=O)c1nccc(COc2ccc(C(C)(C)c3ccc(OC4CCCN(c5ccc6c(c5)C(=O)N(C5CCC(=O)NC5=O)C6=O)C4)cc3)cc2)n1` (stereo not drawn) [Example 107] cannot be ordered by DC50: over 10000 nM for the first, over 10000 nM for the second.
